The record followed here is patent US20230265151A1, “GIP/GLP1 CO-AGONIST COMPOUNDS” (priority 2020, published 2023).

As usually defined, the Emax is the maximal effect, on the per cent scale that the assay sets. Usually EC50 stands for the concentration giving half of the maximal effect.

Like-named read-outs stand apart in the source and are kept apart here.

What all share (format): cell-based
One assay has as its target hGLP-1R (Homo sapiens, UniProt P43220). Kind of assay: Functional cAMP formation (HTRF) in HEK-293 clonal cells expressing hGLP-1R, 0.1% bovine casein, without or with 1.0% human serum albumin. Further details: expressed in transfected cells. Conditions: for EC50: cAMP, 0.1% bovine casein (no human serum albumin), geometric mean. Put shortly:
(§1)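 Cells were stimulated with peptide for 30 min at 37° C, then intracellular cAMP was measured by competitive HTRF (665/620 nm ratio) and converted to nM using a cAMP standard curve. Relative EC50 and Emax came from four-parameter logistic fits of percent maximal response against peptide concentration.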
(Changes in cAMP serve as a functional read-out for many G protein-coupled receptors.)

For a further assay, the target named is T1, hGCGR (Homo sapiens, UniProt P47871).
T1 construct: expressed in transfected cells
Kind of assay: Functional cAMP formation (HTRF) in HEK-293 clonal cells expressing hGCGR, 0.1% bovine casein, without or with 1.0% human serum albumin. In short, it runs like this: as §1

A further assay deals with T2, hGIPR (Homo sapiens, UniProt P48546).
T2 construct: expressed in transfected cells
T2 sequence (P48546 22-466): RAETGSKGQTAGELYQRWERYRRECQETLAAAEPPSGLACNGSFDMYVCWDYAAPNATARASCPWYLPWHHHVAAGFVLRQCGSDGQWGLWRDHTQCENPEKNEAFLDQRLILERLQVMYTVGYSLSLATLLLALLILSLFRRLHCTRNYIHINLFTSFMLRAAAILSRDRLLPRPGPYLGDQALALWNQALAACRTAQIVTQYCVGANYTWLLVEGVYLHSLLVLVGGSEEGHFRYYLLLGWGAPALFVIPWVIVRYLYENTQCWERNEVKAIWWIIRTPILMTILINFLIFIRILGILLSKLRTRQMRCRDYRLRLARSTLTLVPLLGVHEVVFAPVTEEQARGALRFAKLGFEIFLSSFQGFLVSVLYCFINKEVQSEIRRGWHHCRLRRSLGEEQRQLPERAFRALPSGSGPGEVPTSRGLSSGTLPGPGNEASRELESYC
Kind of assay: Functional cAMP formation (HTRF) in HEK-293 clonal cells expressing hGIPR, 0.1% bovine casein, without or with 1.0% human serum albumin. Conditions: for EC50: cAMP, 0.1% bovine casein (no human serum albumin), geometric mean. Put shortly: as §1

Where [1] appears, read: 37° C., read-out: hGLP-1R EC50, nM (SEM, n).
[2] abbreviates: cAMP, 37° C., 0.1% bovine casein (no human serum albumin), geometric mean, read-out: hGCGR EC50, nM (SEM, n).
[3] abbreviates: 37° C., read-out: hGIPR EC50, nM (SEM, n).
Where [4] appears, read: hGCGR EC50, nM (SEM, n), cAMP, incubated at 37° C., 0.1% bovine casein (no human serum albumin), geometric mean.
Where [5] appears, read: HEK293, read-out: hGIPR Emax, % ± SEM, percent of maximal response to GIP(1-42)NH2, 37° C., 0.1% bovine casein, arithmetic mean.

hGLP-1R, sequence (P43220 24-463): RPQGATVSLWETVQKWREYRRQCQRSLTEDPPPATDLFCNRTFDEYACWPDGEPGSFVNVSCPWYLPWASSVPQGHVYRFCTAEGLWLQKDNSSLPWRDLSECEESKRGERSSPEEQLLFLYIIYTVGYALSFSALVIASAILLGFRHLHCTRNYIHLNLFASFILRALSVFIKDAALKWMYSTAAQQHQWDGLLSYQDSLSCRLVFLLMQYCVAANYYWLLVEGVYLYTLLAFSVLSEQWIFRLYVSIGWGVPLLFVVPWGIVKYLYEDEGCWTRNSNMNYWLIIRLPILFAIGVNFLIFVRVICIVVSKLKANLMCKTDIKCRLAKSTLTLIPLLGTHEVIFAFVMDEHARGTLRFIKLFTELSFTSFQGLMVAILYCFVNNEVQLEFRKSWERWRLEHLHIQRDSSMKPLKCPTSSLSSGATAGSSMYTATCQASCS
T1 sequence (P47871 26-477): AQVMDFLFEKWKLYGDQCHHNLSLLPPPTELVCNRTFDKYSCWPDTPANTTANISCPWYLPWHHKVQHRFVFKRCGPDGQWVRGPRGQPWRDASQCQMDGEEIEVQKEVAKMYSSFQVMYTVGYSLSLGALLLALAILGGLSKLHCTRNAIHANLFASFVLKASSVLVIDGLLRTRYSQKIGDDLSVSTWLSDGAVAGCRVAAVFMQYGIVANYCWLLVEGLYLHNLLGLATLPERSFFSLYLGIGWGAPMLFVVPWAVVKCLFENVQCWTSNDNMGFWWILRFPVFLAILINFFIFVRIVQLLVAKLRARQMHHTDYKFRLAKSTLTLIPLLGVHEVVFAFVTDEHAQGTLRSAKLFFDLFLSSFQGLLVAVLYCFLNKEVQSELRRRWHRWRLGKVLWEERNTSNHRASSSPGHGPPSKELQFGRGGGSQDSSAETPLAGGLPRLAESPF

`CC[C@H](C)[C@H](NC(=O)[C@H](CC(C)C)NC(=O)[C@](C)(Cc1ccc(O)cc1)NC(=O)[C@@H](CCC(=O)O)NC(=O)[C@@H](NC(=O)[C@H](Cc1ccccc1)NC(=O)[C@H](CCCCNC(=O)CCOCCOCCOCCOCCNC(=O)CC[C@H](NC(=O)CCCCCCCCCCCCC(=O)O)C(=O)O)NC(=O)C(C)(C)NC(=O)[C@H](CCC(N)=O)NC(=O)[C@H](C)NC(=O)[C@H](CCCCNC(=O)CCOCCOCCOCCOCCNC(=O)CC[C@H](NC(=O)CCCCCCCCCCCCC(=O)O)C(=O)O)NC(=O)[C@H](CCCN)NC(=O)[C@H](CC(=O)O)NC(=O)[C@H](CC(C)C)NC(=O)[C@](C)(CC(C)C)NC(=O)[C@@H](NC(=O)C(C)(C)NC(=O)[C@H](Cc1ccncc1)NC(=O)[C@H](CC(=O)O)NC(=O)[C@H](CO)NC(=O)[C@@H](NC(=O)[C@](C)(Cc1ccccc1F)NC(=O)[C@@H](NC(=O)CNC(=O)[C@H](CCC(=O)O)NC(=O)C(C)(C)NC(=O)[C@@H](N)Cc1ccc(O)cc1)[C@@H](C)O)[C@@H](C)O)[C@@H](C)CC)[C@@H](C)CC)C(=O)N[C@@H](CCC(=O)O)C(=O)NCC(=O)NCC(=O)N1CCC[C@H]1C(=O)N[C@@H](CO)C(=O)N[C@@H](CO)C(=O)NCC(=O)N[C@@H](C)C(=O)N1CCC[C@H]1C(=O)N1CCC[C@H]1C(=O)N1CCC[C@H]1C(=O)N[C@@H](CO)C(N)=O` [Example 405]: the maximal response (Emax) at hGLP-1R (HEK293, cAMP, 37° C., 0.1% bovine casein and 1.0% human serum albumin, percent of maximal response to GLP-1(7-36)NH2, read-out: hGLP-1R Emax, % ± SEM) is 78.1%; on hGLP-1R (HEK293, cAMP, 37° C., 0.1% bovine casein, percent of maximal response to GLP-1(7-36)NH2, arithmetic mean, read-out: hGLP-1R Emax, % ± SEM), 93.3%; at hGIPR (HEK293, cAMP, 37° C., 0.1% bovine casein and 1.0% human serum albumin, percent of maximal response to GIP(1-42)NH2, read-out: hGIPR Emax, % ± SEM), 74.3%; on hGIPR (HEK293, cAMP, 37° C., 0.1% bovine casein, percent of maximal response to GIP(1-42)NH2, arithmetic mean, read-out: hGIPR Emax, % ± SEM), 100%. Also, the EC50 is 1.26 nM at hGLP-1R (setting [1]); above 9950 nM on hGCGR (setting [2]); above 9950 nM on hGCGR (cAMP, 37° C., 0.1% bovine casein and 1.0% human serum albumin, geometric mean (SEM, n), read-out: hGCGR EC50, nM (SEM, n)); 0.0209 nM on hGIPR (setting [3]).
With `CC[C@H](C)[C@H](NC(=O)[C@H](CC(C)C)NC(=O)[C@](C)(Cc1ccc(O)cc1)NC(=O)[C@H](CCCCNC(=O)COCCOCCNC(=O)COCCOCCNC(=O)CC[C@H](NC(=O)CCCCCCCCCCCCC(=O)O)C(=O)O)NC(=O)[C@@H](NC(=O)[C@](C)(Cc1ccccc1)NC(=O)[C@H](CCC(=O)O)NC(=O)C(C)(C)NC(=O)[C@H](CCC(N)=O)NC(=O)[C@H](C)NC(=O)[C@H](CCCCNC(=O)COCCOCCNC(=O)COCCOCCNC(=O)CC[C@H](NC(=O)CCCCCCCCCCCCC(=O)O)C(=O)O)NC(=O)[C@H](CCCN)NC(=O)[C@H](CC(=O)O)NC(=O)[C@H](CC(C)C)NC(=O)[C@](C)(CC(C)C)NC(=O)[C@@H](NC(=O)C(C)(C)NC(=O)[C@H](Cc1ccncc1)NC(=O)[C@H](CC(=O)O)NC(=O)[C@H](CO)NC(=O)[C@@H](NC(=O)[C@](C)(Cc1ccccc1F)NC(=O)[C@@H](NC(=O)CNC(=O)[C@H](CCC(=O)O)NC(=O)C(C)(C)NC(=O)[C@@H](N)Cc1ccc(O)cc1)[C@@H](C)O)[C@@H](C)O)[C@@H](C)CC)[C@@H](C)CC)C(=O)N[C@@H](CCC(=O)O)C(=O)NCC(=O)NCC(=O)N1CCC[C@H]1C(=O)N[C@@H](CO)C(=O)N[C@@H](CO)C(=O)NCC(=O)N[C@@H](C)C(=O)N1CCC[C@H]1C(=O)N1CCC[C@H]1C(=O)N1CCC[C@H]1C(=O)N[C@@H](CO)C(N)=O` [Example 117], the Emax came to 98.2% at hGLP-1R (HEK293, read-out: hGLP-1R Emax, % ± SEM, percent of maximal response to GLP-1(7-36)NH2, 37° C., 0.1% bovine casein, arithmetic mean) and 96.4% on hGIPR (setting [5]). Also, at hGCGR (setting [4]), the half-maximal effective concentration (EC50) is above 9950 nM.
`CCCCCCCCCCCC(=O)N[C@@H](CCC(=O)NCCOCCOCC(=O)NCCOCCOCC(=O)NCCCC[C@H](NC(=O)[C@H](CCCN)NC(=O)[C@H](CC(=O)O)NC(=O)[C@H](CC(C)C)NC(=O)[C@](C)(CC(C)C)NC(=O)[C@@H](NC(=O)[C@H](CO)NC(=O)[C@H](Cc1ccncc1)NC(=O)[C@H](CC(=O)O)NC(=O)[C@H](CO)NC(=O)[C@@H](NC(=O)[C@](C)(Cc1ccccc1F)NC(=O)[C@@H](NC(=O)CNC(=O)[C@H](CCC(=O)O)NC(=O)C(C)(C)NC(=O)[C@@H](N)Cc1ccc(O)cc1)[C@@H](C)O)[C@@H](C)O)[C@@H](C)CC)C(=O)N[C@@H](C)C(=O)N[C@@H](CCC(N)=O)C(=O)NC(C)(C)C(=O)N[C@@H](CCCN)C(=O)N[C@@H](Cc1ccccc1)C(=O)N[C@H](C(=O)N[C@H](CCC(=O)O)C(=O)N[C@@](C)(Cc1ccc(O)cc1)C(=O)N[C@@H](CC(C)C)C(=O)N[C@H](C(=O)N[C@@H](CCCCNC(=O)COCCOCCNC(=O)COCCOCCNC(=O)CC[C@H](NC(=O)CCCCCCCCCCC)C(=O)O)C(=O)NCC(=O)NCC(=O)N1CCC[C@H]1C(=O)N[C@@H](CO)C(=O)N[C@@H](CO)C(=O)NCC(=O)N[C@@H](C)C(=O)N1CCC[C@H]1C(=O)N1CCC[C@H]1C(=O)N1CCC[C@H]1C(=O)N[C@@H](CO)C(N)=O)[C@@H](C)CC)[C@@H](C)CC)C(=O)O` [Example 299]: the concentration for a half-maximal effect (EC50) is 0.126 nM at hGLP-1R (setting [1]); above 9950 nM at hGCGR (0.1% bovine casein and 1.0% human serum albumin, 37° C., geometric mean, read-out: hGCGR EC50, nM (SEM, n)); above 9950 nM on hGCGR (setting [2]); 0.0104 nM on hGIPR (setting [3]).
As to `CC[C@H](C)[C@H](NC(=O)[C@H](CC(C)C)NC(=O)[C@](C)(Cc1ccc(O)cc1)NC(=O)[C@H](CCCCNC(=O)COCCOCCNC(=O)COCCOCCNC(=O)CC[C@H](NC(=O)CCCc1ccc(C(C)(C)C)cc1)C(=O)O)NC(=O)[C@@H](NC(=O)[C@H](Cc1ccccc1)NC(=O)[C@H](CCC(=O)O)NC(=O)C(C)(C)NC(=O)[C@H](CCC(N)=O)NC(=O)[C@H](C)NC(=O)[C@H](CCCCNC(=O)COCCOCCNC(=O)COCCOCCNC(=O)CC[C@H](NC(=O)CCCc1ccc(C(C)(C)C)cc1)C(=O)O)NC(=O)[C@H](CCCN)NC(=O)[C@H](CC(=O)O)NC(=O)[C@H](CC(C)C)NC(=O)[C@](C)(CC(C)C)NC(=O)[C@@H](NC(=O)[C@H](CO)NC(=O)[C@H](Cc1ccncc1)NC(=O)[C@H](CC(=O)O)NC(=O)[C@H](CO)NC(=O)[C@@H](NC(=O)[C@](C)(Cc1ccccc1F)NC(=O)[C@@H](NC(=O)CNC(=O)[C@H](CCC(=O)O)NC(=O)C(C)(C)NC(=O)[C@@H](N)Cc1ccc(O)cc1)[C@@H](C)O)[C@@H](C)O)[C@@H](C)CC)[C@@H](C)CC)C(=O)N[C@@H](CCC(=O)O)C(=O)NCC(=O)NCC(=O)N1CCC[C@H]1C(=O)N[C@@H](CO)C(=O)N[C@@H](CO)C(=O)NCC(=O)N[C@@H](C)C(=O)N1CCC[C@H]1C(=O)N1CCC[C@H]1C(=O)N1CCC[C@H]1C(=O)N[C@@H](CO)C(N)=O` [Example 132], the concentration for a half-maximal effect (EC50) is 0.182 nM at hGLP-1R (hGLP-1R EC50, nM (SEM, n), incubated at 37° C.); above 9950 nM on hGCGR (setting [4]); 0.0208 nM at hGIPR (hGIPR EC50, nM (SEM, n), incubated at 37° C.). Further, the maximal effect (Emax) on hGIPR (setting [5]) was determined as 98.3 ± 1.68%.
